As usually defined, the AUC(0-inf) is the area under the concentration-time curve extrapolated to infinity. A higher AUC(0-inf) goes with high exposure. What is called AUC(0-t) is the area under the concentration-time curve up to a stated or last time point. The clearance is the rate of elimination divided by the concentration. By Vd is commonly meant a proportionality between amount in the body and measured concentration, not a real space.

Here are results for 2 molecules from article PMC6268361, “Development and Validation of a Bioanalytical Method for Quantification of 2,6-Bis-(4-hydroxy-3-methoxybenzylidene)-cyclohexanone (BHMC) in Rat Plasma” (Molecules, 2012).

For one series, the system named is lethal sepsis in mice. Also on record: method as in PMID 21114991. The note with it: compared with curcumin; cited from earlier work.
The test system of series [1] is mouse model of inflammatory pain. Also on record: method as in PMID 12609665. The note with it: cited from earlier work.
Series [2] in a line: Pharmacokinetic study in rats after i.v. administration (HPLC-UV/VIS of plasma, non-compartmental analysis). The following applies: i.v. 10 mg/kg. The format is in vivo, male Sprague Dawley rats. The method, then: Samples were analyzed with a Flexar HPLC system that consisted of a UV/VIS detector, a quaternary pump and a solvent manager with built-in degasser (PerkinElmer, Waltham, MA, USA). The separation was achieved using a Waters Symmetry C18 column (150 × 4.6 mm I.D.; 5 µm; Waters, Milford, MA, USA) protected by a Waters Symmetry C18 Guard Column (20 × 3.9 mm I.D.; 5 µm; Waters, Milford, MA, USA) at ambient temperature. The system’s pump delivered a constant flow of 1 mL/min. The volume of injection was 50 µL. BHMC and IS were eluted with a gradient method that gave an initial flow of 100% water for 1 min, changing linearly to 100% methanol in 11 min. Pure methanol was pumped continuously for 9 min. After this, 100% water was regained to stabilize the chromatographic system for 6 min. BHMC and IS were detected at a visible range of 380 nm. The analyses were repeated according to the gradient elution at every analytical cycle. The chromatograms were analyzed with Chromera Manager 2.1 (PerkinElmer, Waltham, MA, USA).
Plasma samples (200 µL) were pipetted into 1.5 mL microcentrifuge tubes. To each tube, deionized water (80 µL) was added and the tubes vortexed at medium speed for 20 s. Next, IS (62.5 µg/mL, 40 µL) was added and the mixtures vortexed again at medium speed for 20 s. A volume of 500 µL extraction reagent (95% ethyl acetate, 5% methanol) was loaded into each tube followed by a 60 s sonication and high speed vortexing for 60 s. The tubes were allowed to settle for 5 min followed by centrifugation at 13,500 g for 5 min at a temperature of 15 °C. After centrifugation the upper organic layer was carefully removed into another clean microcentrifuge tube. The organic layer was dried under a stream of nitrogen gas with a low heat setting. The dried extracted product was resuspended in 200 µL of a solution consisting of 10% methanol and 90% deionized water, sonicated for 60 s then vortexed at medium speed for 30 s. The tubes were left at room temperature in the dark for at least 10 min, followed by a repeat vortex mixing. The content was then filtered with 0.45 µm PTFE syringe filters (Titan, West Springfield, MA, USA) into a clean HPLC injection sample vial for HPLC assay.
Experiments was conducted on male Sprague Dawley rats (8–10 weeks old, 180–200 g) supplied by the Faculty of Veterinary Medicine, Universiti Putra Malaysia. All rats were housed at 23 ± 2 °C with 12 h of light/dark cycle with access to food and water ad libitum. They were acclimatized and habituated to the laboratory condition for at least one week prior to experimentation and were used only once throughout the experiments. All experimental protocols involving animals were performed in accordance with the current guidelines for the care of laboratory animals and the ethical guidelines for animal experimentation Animal Care and Use Committee (ACUC) as approved by the Animal Experimentation Ethics Committee of Universiti Putra Malaysia. Six rats were used. BHMC, solubilized in 5% ethanol (Thermo Fisher Scientific, Waltham, MA, USA), 5% Tween-20 (Sigma-Aldrich, St. Louis, MO, USA) and 90% deionized water, was injected intravenously to each rat at a dose of 10 mg/kg body weight. Blood samples (0.5 mL) were obtained from the tail vein at 5, 15, 30, 60, 120, 240, 480 and 720 min following BHMC administration. In order to prevent coagulation and enable plasma collection 1 µg of heparin sodium was added to each blood sample. Each sample was immediately centrifuged at 3,000 g for 10 min and the plasma was processed as described under sample preparation section. Pharmacokinetic parameters were estimated using non-compartmental pharmacokinetic analysis.

Series [3] has as its system cellular synthesis of nitric oxide and several proinflammatory cytokines. Also noted: method as in PMID 19958764, PMID 21114991. The following applies: through inhibition of signaling pathways incl. phosphorylation of p38 MAPK; cited from earlier work.
On the set-up of series [4]: method as in PMID 19110321, PMID 14997198, PMID 17400527, PMID 17999464. The following applies: cited from earlier work.
[5] abbreviates: male, Sprague Dawley, rat, plasma, iv, n = 6, mean ± SD, non-compartmental analysis.

Turning to `COc1cc(C=C2CCCC(=Cc3ccc(O)c(OC)c3)C2=O)ccc1O` [BHMC, 2,6-bis-(4-hydroxy-3-methoxybenzylidene)-cyclohexanone], the “Reduction of mortality following severe sepsis” value in the series with lethal sepsis in mice is listed as “superior to curcumin in reducing mortality”. The Analgesic effect entry in series [1] is given as “potential analgesic effect”. For the same molecule, the “Time post-treatment up to which quantifiable in plasma of all rats” value in series [2] (LOQ 0.02 µg/mL) is given as “at least 8 h”. Besides, in series [2] (setting [5]), the AUC(0-inf) was 989 ng·h/mL and the AUC(0-t) is 937 ng·h/mL. The clearance in series [2] (male, Sprague Dawley, rat, plasma, iv, n = 6, mean ± SD, non-compartmental analysis, read-out: Cl (clearance)) was 5.3 ± 0.7 mL/min. The Cmax in series [2] (male, Sprague Dawley, rat, plasma, iv, n = 6, mean ± SD, non-compartmental analysis, read-out: Cmax (maximum plasma concentration)) is 2910 ± 150 ng/mL. Also, the half-life in series [2] (male, Sprague Dawley, rat, plasma, iv, n = 6, mean ± SD, non-compartmental analysis, read-out: T1/2 (half-life)) was 1.5 ± 0.124 h. Further, the Vd in series [2] (male, Sprague Dawley, rat, plasma, iv, n = 6, mean ± SD, non-compartmental analysis, read-out: Vd (volume of distribution)) stood at 0.69 ± 0.038 L. Moreover, in series [3], the “Effect on cellular synthesis of nitric oxide and several proinflammatory cytokines” value is reported as “significant inhibitory effects”.

Regarding `COc1cc(C=CC(=O)CC(=O)C=Cc2ccc(O)c(OC)c2)ccc1O` [Curcumin, 1,7-bis(4-hydroxy-3-methoxyphenyl)-1,6-heptadiene-3,5-dione], the “Bioavailability via oral administration” value in series [4] is listed as “low bioavailability”.
